Where only a bound is given, the exact number is not on record here.

IC50 data for 27 compounds are collected here from patent US8148367B2 (Takeda Pharmaceutical Company Limited, priority 2008, dated 2012).

For the experiment, the target named is T1, Recombinant human renin (Homo sapiens, UniProt P00797).
T1 construct: isolate the active form (residues 67-406); made in house; host or cells: FreeStyle 293-F cells, transient expression of pcDNA3.1(+)/hREN
T1 sequence (P00797 67-406): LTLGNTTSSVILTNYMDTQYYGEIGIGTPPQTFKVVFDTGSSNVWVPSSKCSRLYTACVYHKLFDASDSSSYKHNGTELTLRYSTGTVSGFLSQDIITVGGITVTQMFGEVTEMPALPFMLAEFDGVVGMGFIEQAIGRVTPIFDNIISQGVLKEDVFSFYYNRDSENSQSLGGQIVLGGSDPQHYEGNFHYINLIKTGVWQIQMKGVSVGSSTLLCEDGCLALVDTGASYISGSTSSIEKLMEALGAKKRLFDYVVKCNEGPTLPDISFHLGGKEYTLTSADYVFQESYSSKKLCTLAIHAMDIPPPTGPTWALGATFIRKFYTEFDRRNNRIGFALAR
Briefly: In vitro enzymatic activity assay of renin inhibitors (fluorescence, QXL520/HiLyteFluo488 peptide substrate). As to conditions: recombinant human renin 3 nM, 1 μM substrate, pre-incubated 10 minutes at 37° C., incubation one hour, pH 7.4, 5% DMSO; read-out: IC50 of Exemplified Compounds Against Renin. It is filed as biochemical.
As to `COCCCOc1cccc(-n2c(-c3ccccc3)c(C(=O)N3CCNCC3)n(Cc3cccc(Oc4ccccc4)c3)c2=O)c1` [Example 13, 1-(3-(3-methoxypropoxy)phenyl)-3-(3-phenoxybenzyl)-5-phenyl-4-(piperazine-1-carbonyl)-1H-imidazol-2(3H)-one], the IC50 is above 1000 nM.
Consider `COc1cc(-c2cc(Cn3c(C(=O)N4CCNCC4)c(-c4ccccc4)n(C4CCCCC4)c3=O)cc(-c3ccnc(OC)c3)n2)ccn1` [Example 17E, 1-Cyclohexyl-3-((2,6-di(2-methoxyl-pyridine-4-yl)pyridin-4-yl)methyl)-5-phenyl-4-(piperazine-1-carbonyl)-1H-imidazol-2(3H)-one], for which the IC50 was 100 to 500 nM.
For `COc1ccc(-c2cc(Cn3c(C(=O)N4CCNCC4)c(-c4ccccc4)n(C4CCCCC4)c3=O)ccn2)cn1` [Example 17F, 1-Cyclohexyl-3-((6′-methoxy-2,3′-bipyridin-4-yl)methyl)-5-phenyl-4-(piperazine-1-carbonyl)-1H-imidazol-2(3H)-one], the IC50 lay within 100 to 500 nM.
With `COc1ccc(-c2cc(Cn3c(C(=O)N4CCNCC4)c(-c4ccccc4)n(C4CCCCC4)c3=O)cc(N(C)C)n2)cn1` [Example 17H, 1-cyclohexyl-3-((6-(dimethylamino)-6′-methoxy-2,3′-bipyridin-4-yl)methyl)-5-phenyl-4-(piperazine-1-carbonyl)-1H-imidazol-2(3H)-one], the IC50 was in the range of 100 to 500 nM.
Regarding `CCN(CC)c1cc(Cn2c(C(=O)N3CCNCC3)c(-c3ccccc3)n(C3CCCCC3)c2=O)cc(-c2ccc(OC)nc2)n1` [Example 17J, 1-cyclohexyl-3-((6-(diethylamino)-6′-methoxy-2,3′-bipyridin-4-yl)methyl)-5-phenyl-4-(piperazine-1-carbonyl)-1H-imidazol-2(3H)-one], the IC50 was in the range of 100 to 500 nM.
The result for `O=C(c1[nH]c(=O)n(-c2ccccc2)c1-c1ccccc1)N1CCNCC1` [Example 18, 1,5-Diphenyl-4-(piperazine-1-carbonyl)-1H-imidazol-2(3H)-one] reads above 1000 nM.
As to `O=C(c1[nH]c(=O)n(-c2ccccn2)c1-c1ccccc1)N1CCNCC1` [Example 19, 5-Phenyl-4-(piperazine-1-carbonyl)-1-(pyridin-2-yl)-1H-imidazol-2(3H)-one], the IC50 was above 1000 nM.
The result for `O=C(c1[nH]c(=O)n(-c2ccccc2)c1-c1ccccc1)N1CCNCC1CO` (stereo not drawn) [Example 20, 4-(2-(Hydroxymethyl)piperazine-1-carbonyl)-1,5-diphenyl-1H-imidazol-2(3H)-one] reads above 1000 nM; that for `O=C(c1[nH]c(=O)n(-c2ccccc2)c1-c1cccc(F)c1)N1CCNCC1` [Example 21, 5-(3-Fluorophenyl)-1-phenyl-4-(piperazine-1-carbonyl)-1H-imidazol-2(3H)-one], above 1000 nM.
The result for `O=C(c1[nH]c(=O)n(-c2cccc(N3CCOCC3)c2)c1-c1ccccc1)N1CCNCC1` [Example 22, 1-(3-Morpholinophenyl)-5-phenyl-4-(piperazine-1-carbonyl)-1H-imidazol-2(3H)-one] reads 500 to 1000 nM; that for `CC(C)c1c(C(=O)N2CCNCC2)[nH]c(=O)n1-c1ccccc1` [Example 23, 5-Isopropyl-1-phenyl-4-(piperazine-1-carbonyl)-1H-imidazol-2(3H)-one], above 1000 nM; that for `O=C(c1[nH]c(=O)n(-c2ccccc2)c1C1CC1)N1CCNCC1` [Example 24, 5-Cyclopropyl-1-phenyl-4-(piperazine-1-carbonyl)-1H-imidazol-2(3H)-one], above 1000 nM.
On to `O=C(c1[nH]c(=O)n(-c2ccccc2)c1CC1CC1)N1CCNCC1` [Example 25, 5-(Cyclopropylmethyl)-1-phenyl-4-(piperazine-1-carbonyl)-1H-imidazol-2(3H)-one], for which the IC50 is above 1000 nM.
Consider `O=C(c1[nH]c(=O)n(-c2ccccc2)c1-c1ccccc1Cl)N1CCNCC1` [Example 26, 5-(2-Chlorophenyl)-1-phenyl-4-(piperazine-1-carbonyl)-1H-imidazol-2(3H)-one], for which the IC50 was above 1000 nM.
`COCCOc1cccc(Cn2c(C(=O)N3CCNCC3)c(-c3ccccc3)n(-c3ccccc3C)c2=O)c1` [Example 27, 1-(3-(2-methoxyethoxy)benzyl)-4-phenyl-5-(piperazine-1-carbonyl)-3-o-tolyl-1H-imidazol-2(3H)-one]: the concentration for half-maximal inhibition (IC50) lay in the range of 100 to 500 nM.
On to `O=C(c1[nH]c(=O)n(-c2ccccc2)c1-c1ccc(Cl)cc1)N1CCNCC1` [Example 28, 5-(4-Chlorophenyl)-1-phenyl-4-(piperazine-1-carbonyl)-1H-imidazol-2(3H)-one], for which the IC50 was above 1000 nM.
Take `O=C(c1[nH]c(=O)n(C2CCCCC2)c1-c1ccccc1)N1CCNCC1` [Example 29, 1-Cyclohexyl-5-phenyl-4-(piperazine-1-carbonyl)-1H-imidazol-2(3H)-one]: the IC50 lay in the range of 500 to 1000 nM.
As for `COCCOc1ccccc1-n1c(-c2ccccc2)c(C(=O)N2CCNCC2)[nH]c1=O` [Example 32, 1-(2-(2-Methoxyethoxy)phenyl)-5-phenyl-4-(piperazine-1-carbonyl)-1H-imidazol-2(3H)-one], the IC50 was above 1000 nM.
For `COCCCOc1ccccc1-n1c(-c2ccccc2)c(C(=O)N2CCNCC2)[nH]c1=O` [Example 33, 1-(2-(3-Methoxypropoxy)phenyl)-5-phenyl-4-(piperazine-1-carbonyl)-1H-imidazol-2(3H)-one], the IC50 was above 1000 nM.
Consider `COCCOc1cccc(-n2c(-c3ccccc3)c(C(=O)N3CCNCC3)[nH]c2=O)c1` [Example 34, 1-(3-(2-Methoxyethoxy)phenyl)-5-phenyl-4-(piperazine-1-carbonyl)-1H-imidazol-2(3H)-one], for which the IC50 was above 1000 nM.
In the case of `COCCCOc1cccc(-n2c(-c3ccccc3)c(C(=O)N3CCNCC3)[nH]c2=O)c1` [Example 35, 1-(3-(3-Methoxypropoxy)phenyl)-5-phenyl-4-(piperazine-1-carbonyl)-1H-imidazol-2(3H)-one], the IC50 lay within 500 to 1000 nM.
The result for `COCCCOc1cccc(-n2c(-c3ccccc3)c(C(=O)N3CCNCC3)[nH]c2=O)n1` [Example 36, 1-(6-(3-Methoxypropoxy)pyridin-2-yl)-5-phenyl-4-(piperazine-1-carbonyl)-1H-imidazol-2(3H)-one] reads above 1000 nM; that for `C[C@@H]1CN(C(=O)c2[nH]c(=O)n(C3CCCCC3)c2-c2ccccc2)CCN1` [Example 37, (R)-1-Cyclohexyl-4-(3-methylpiperazine-1-carbonyl)-5-phenyl-1H-imidazol-2(3H)-one], above 1000 nM; that for `CC1CN(C(=O)c2[nH]c(=O)n(C3CCCCC3)c2-c2ccccc2)CCN1` (stereo not drawn) [Example 38, 1-Cyclohexyl-4-(3-methylpiperazine-1-carbonyl)-5-phenyl-1H-imidazol-2(3H)-one], above 1000 nM.
With `C[C@H]1CN(C(=O)c2[nH]c(=O)n(C3CCCCC3)c2-c2ccccc2)CCN1` [Example 39, (S)-1-Cyclohexyl-4-(3-methylpiperazine-1-carbonyl)-5-phenyl-1H-imidazol-2(3H)-one], the IC50 is above 1000 nM.
The result for `CC1CN(C(=O)c2[nH]c(=O)n(C3CCCCC3)c2-c2ccccc2)CC(C)N1` (stereo not drawn) [Example 40, 1-Cyclohexyl-4-(3,5-dimethylpiperazine-1-carbonyl)-5-phenyl-1H-imidazol-2(3H)-one] reads above 1000 nM.
Consider `CC1CN(C(=O)c2[nH]c(=O)n(C3CCCCC3)c2-c2ccccc2)C(C)CN1` (stereo not drawn) [Example 41, 1-Cyclohexyl-4-(2,5-dimethylpiperazine-1-carbonyl)-5-phenyl-1H-imidazol-2(3H)-one], for which the IC50 was above 1000 nM.

Usually IC50 stands for the concentration that gives 50% inhibition.
